The source of these data is BindingDB's records for doi:10.1021/jm00350a009 (1982).

This test can be described thus: Compound was tested for inhibition of [3H]dihydroalprenolol radioligand binding to Beta-1 adrenergic receptor in dog heart.
For orientation: IC50 means the concentration at which inhibition is half-maximal. Read a high IC50 as weaker potency in that assay. As to `CC(C)(C)NC[C@H](O)CON=C1c2ccccc2-c2ccccc21`, the IC50 stood at 29 nM.
Consider `CC(C)(C)NC[C@@H](O)CON=C1c2ccccc2-c2ccccc21`, for which the IC50 is 43 nM.
With `Cc1ccc(OCC(O)CNC(C)C)c2c1CCC2` (centres undefined) [1-Isopropylamino-3-(7-methyl-indan-4-yloxy)-propan-2-ol] the figure was 186 nM.
The same measure for `CC(C)(C)NCC(O)CON=C1c2ccccc2-c2ccccc21` (centres undefined) [Fluoren-9-one O-(3-tert-butylamino-2-hydroxy-propyl)-oxime]: 38 nM.
